Data from patent publication US20110312495A1, “SYNERGISTIC HERBICIDAL COMPOSITION CONTAINING CLOPYRALID AND FLORASULAM” (DOW AGROSCIENCES LLC, priority 2010, published 2011).

What was measured:
Assay in all cases: Postemergence herbicidal activity under field conditions, visual weed control
Assay type in all cases: in vivo
Settings in all cases: field trial #1, 45 to 92 days after application
[1] = tested on: Bachelor's button (Centaurea cyanus, CENCY)
Method: (§1) These trials were conducted under field conditions in Germany. Trial sites were located in commercially grown winter barley and winter rye. The crops were grown using normal cultural practices for fertilization, seeding, and maintenance to ensure good growth of the crop and the weeds. The trials were conducted using normal research methodology. Trial plots were between 2.5 to 3 meters (m) wide by 6 to 10 m long. All treatments were applied using a randomized complete block trial design with 3 replications per treatment. The trial sites had naturally occurring populations of weeds. The weed spectrum included, but was not limited to, scentless mayweed (Matricaria inodora, MATIN), field forget-me-not (Myosotis arvensis, MYOAR), and Bachelor's button (Centaurea cyanus, CENCY).
(§2) Treatments consisted of formulated products applied in water. The application volumes were 200 liter per hectare (L/ha). All application were made using precision bicycle sprayers using a 3 m boom using flat fan (80° or 110°) nozzles to broadcast the treatments on the testing plots.
(§3) The treated plots and control plots were rated blind at various intervals after application. Ratings were based of Percent (%) Visual weed control, where 0 corresponds to no injury and 100 corresponds to complete kill. […]

[2] = tested on: scentless mayweed (Matricaria inodora, MATIN)
Method: as §1, §2, §3

[3] = tested on: field forget-me-not (Myosotis arvensis, MYOAR)
Method: as §1, §2, §3

SMILES | CENCY Obs - Percent control observed ([1]; florasulam 2.5 g ai/ha alone) [%] | CENCY Obs - Percent control observed ([1]; florasulam 3.75 g ai/ha alone) [%] | CENCY Obs - Percent control observed ([1]; florasulam 5 g ai/ha alone) [%] | MATIN Obs - Percent control observed ([2]; florasulam 2.5 g ai/ha alone) [%] | MATIN Obs - Percent control observed ([2]; florasulam 3.75 g ai/ha alone) [%] | MATIN Obs - Percent control observed ([2]; florasulam 5 g ai/ha alone) [%] | MYOAR Obs - Percent control observed ([3]; florasulam 2.5 g ai/ha alone) [%] | MYOAR Obs - Percent control observed ([3]; florasulam 3.75 g ai/ha alone) [%] | MYOAR Obs - Percent control observed ([3]; florasulam 5 g ai/ha alone) [%] | CENCY Obs - Percent control observed ([1]; clopyralid 30 g ae/ha alone) [%] | CENCY Obs - Percent control observed ([1]; clopyralid 45 g ae/ha alone) [%] | CENCY Obs - Percent control observed ([1]; clopyralid 60 g ae/ha alone) [%] | MATIN Obs - Percent control observed ([2]; clopyralid 30 g ae/ha alone) [%] | MATIN Obs - Percent control observed ([2]; clopyralid 45 g ae/ha alone) [%] | MATIN Obs - Percent control observed ([2]; clopyralid 60 g ae/ha alone) [%] | MYOAR Obs - Percent control observed ([3]; clopyralid 30 g ae/ha alone) [%] | MYOAR Obs - Percent control observed ([3]; clopyralid 45 g ae/ha alone) [%] | MYOAR Obs - Percent control observed ([3]; clopyralid 60 g ae/ha alone) [%]
COc1ncc(F)c2nc(S(=O)(=O)Nc3c(F)cccc3F)nn12 [Florasulam, 2′,6′,8-trifluoro-5-methoxy[1,2,4]triazolo[1,5-c]-pyrimidine-2-sulfonanilide] | 20 | 40 | 70 | 60 | 67 | 53 | 50 | 50 | 67 | – | – | – | – | – | – | – | – | –
O=C(O)c1nc(Cl)ccc1Cl [Clopyralid, 3,6-dichloropyridine-2-carboxylic acid] | – | – | – | – | – | – | – | – | – | 37 | 57 | 73 | 0 | 50 | 58 | 0 | 0 | 0
